According to patent publication US20090030079A1 (priority 2007, published 2009):
Read-outs that look alike come from different tables or passages of the source.

Experiments:
[1] = Tl^1+; cited from earlier work
[2] = Cd^2+, cited from earlier work
[3] = Pb^2+, cited from earlier work
[4] = Hg^2+, cited from earlier work
[5] = cited from earlier work
[6] = Decorporation of Polonium-210: tissue distribution of IV administered Po-210 in rats; assay type: in vivo, Wistar-Han rats; details: for % Reduction of Po-210 vs Po-210 Control / effect on polonium-210 level (in words): oral 15 mg/kg x 5, day 6; for Po-210 dpm/gm for animal group: single IV Po-210 approx. 90 kBq, oral 15 mg/kg every 24 h x 5, sacrifice day 6
Protocol: The digested sample was diluted with distilled water to reduce the nitric acid to approximately 1 M. An aliquot of the resulting solution was added to Ultima Gold XR liquid scintillation cocktail (Packard BioScience, Meriden, Conn.), counted and corrected for possible quenching.

[7] = Ni^2+, cited from earlier work
[8] = Co^2+; cited from earlier work
[9] = Zn^2+, cited from earlier work
[10] = Decorporation of Cobalt-60: tissue distribution and excretion of IV administered Co-60 in rats; assay type: in vivo, Male Wistar-Han rats; details: for Co-60 Dose % for animal group: single IV Co-60 14 KBq, 48 hr post exposure; for effect on total Co-60 excretion (urine and feces): monitored 2 days, not statistically significant, 15 mg/kg
Protocol: Materials. Chloride stock solution of ^60Co as ^60CoCl2 was diluted with sterile saline solution to adjust to the desired activity and used for the IV dosing. Activity of the dosing solution was determined using automated Wallac 1480 (Perkin Elmer) gamma counter equipped with 3 inch NaI(TI) crystal shielded detector.
Animals. Male Wistar-Han rats were obtained from Charles River Breeding Laboratory (Raleigh, N.C.) with indwelling jugular vein cannula. Animals were provided food and water ad libitum during acclimatization. The light cycle was 12 hour light/12 hour dark and relative humidity and temperature maintained at 50±15% and 22±2° C. All animal use protocols were approved by the Institutional Animal Care and Use Committee at Battelle, Pacific Northwest Division and studies were performed according to the “Guide for the Care and Use of Laboratory Animals” (National Research Council, Washington D.C., 1996).
Dosing regimen. Animals were restricted from food overnight prior to exposure. At the time of exposure, groups of animals (N=6) received a single intravenous (IV) injection (0.2 mL) of ^60Co solution at 14.0±0.6 KBq dose in sterile saline via an indwelling jugular vein cannula. […] The actual doses delivered were calculated based on the individual animal weights (Table 3). One group of animals was dosed with the radionuclide without subsequent administration of the chelation material to serve as control group. Following dosing, animals were placed in Nalgene metabolism cages for separate collection of urine and feces. […] Animals were sacrificed 48 hr post radionuclide administration. At sacrifice, blood and tissues (liver, kidney, spleen, gastrointestinal tract, muscle, bone, bone marrow, and lung) were collected, weighed and counted for radioactivity using a Wallac 1480 gamma counter. Gamma count data were normalized to percent administered dose after adjusting the grams of tissue collected for total organ mass.
Data statistical evaluation. Each data group was subjected to Dixon's Q-test to evaluate for potential outliers. In this test Q parameter of 0.625 (N=6, 95% confidence level, a=0.05) was used (1). For each tissue, a preliminary F-test (95% confidence level, a=0.05) for the equality of variances of the control and each treatment group was performed using Excel software. If the calculated probability p value was less than 0.05, the variances were assumed to be not equal. Based on this information, “T-test: Two-Sample Assuming Unequal Variances” or “T-test: Two-Sample Assuming Equal Variances” (95% confidence level, a=0.05) was performed using Excel software. The calculated p-value less than 0.05 provides evidence to reject the null hypothesis of equal means. The obtained statistical parameters listed in Table 4 served as guidelines for data evaluation (Table 5; calculation assumes that total skeleton, blood, or muscle is approximately 7.3, 6, or 40% of the body weight of the animal, respectively; Co-60 in skeleton is calculated based on the femur data—R. P. Brown, M. D. Delp, S. L. Undstedt, L. R. Rhomberg, and R. P. Beliles, Physiological Parameter Values for Physiologically Based Pharmacokinetic Models. Toxicology and Industrial Health, 1997, 13(4): 407-484).

[11] = Cu^1+, cited from earlier work
[12] = Ag^1+, cited from earlier work
[13] = single oral dose 15 mg/kg, day 1 post exposure

## CC(C)(S)[C@@H](N)C(=O)O [Penicillamine, 3-mercapto-D-valine]
[1]
  binding stability constant (log K): 3.58
[2]
  binding stability constant (log K): 11.55
[2]; listed as penicillamine
  binding stability constant (log K): fairly strong
[3]
  binding stability constant (log K): 12.3
[3]; listed as penicillamine
  binding stability constant (log K): fairly strong
[4]
  binding stability constant (log K): 16.3
[4]; listed as penicillamine
  binding stability constant (log K): very strongly
[5]; in acetone
  solubility: insoluble
[5]; in alcohol
  solubility: slightly soluble
[5]; in benzene
  solubility: insoluble
[5]; in carbon tetrachloride
  solubility: insoluble
[5]; in ether
  solubility: insoluble
[5]; in water
  solubility: freely soluble
[6]; Blood
  % Reduction of Po-210 vs Po-210 Control: 18%
  Po-210 dpm/gm for animal group: 28482 ± 6375 dpm/gm
[6]; Femur
  Po-210 dpm/gm for animal group: 22969 ± 4055 dpm/gm
[6]; Kidney
  % Reduction of Po-210 vs Po-210 Control: −15%
  Po-210 dpm/gm for animal group: 216172 ± 31993 dpm/gm
[6]; Liver
  % Reduction of Po-210 vs Po-210 Control: 12%
  Po-210 dpm/gm for animal group: 124648 ± 47423 dpm/gm
[6]; Lung
  % Reduction of Po-210 vs Po-210 Control: 20%
  effect on polonium-210 level (in words): reduced
  Po-210 dpm/gm for animal group: 67342 ± 7895 dpm/gm
[6]; Spleen
  Po-210 dpm/gm for animal group: 236736 ± 35488 dpm/gm
[6]; femur
  % Reduction of Po-210 vs Po-210 Control: 13%
  effect on polonium-210 level (in words): reduced
[6]; spleen
  % Reduction of Po-210 vs Po-210 Control: 44%
  effect on polonium-210 level (in words): reduced
[7]
  binding stability constant (log K): 10.70
[7]; listed as penicillamine
  binding stability constant (log K): fairly strong
[8]
  binding stability constant (log K): 8.98
[9]
  binding stability constant (log K): 9.71
[9]; listed as penicillamine
  binding stability constant (log K): fairly strong
[10]; Blood, single oral dose 15 mg/kg
  Co-60 Dose % for animal group: 0.089 ± 0.014%
[10]; Blood, single oral dose 15 mg/kg, 48 hr
  % Reduction of Co-60 vs Co-60 Control: 0%
[10]; Bone Marrow, single oral dose 15 mg/kg
  Co-60 Dose % for animal group: Below detection
[10]; Intestine, single oral dose 15 mg/kg
  Co-60 Dose % for animal group: 0.94 ± 0.25%
[10]; Intestine, single oral dose 15 mg/kg, 48 hr
  % Reduction of Co-60 vs Co-60 Control: 47%
[10]; Kidney, single oral dose 15 mg/kg
  Co-60 Dose % for animal group: 0.31 ± 0.07%
[10]; Kidney, single oral dose 15 mg/kg, 48 hr
  % Reduction of Co-60 vs Co-60 Control: 56%
[10]; Liver, single oral dose 15 mg/kg
  Co-60 Dose % for animal group: 0.99 ± 0.25%
[10]; Liver, single oral dose 15 mg/kg, 48 hr
  % Reduction of Co-60 vs Co-60 Control: 51%
[10]; Lung, single oral dose 15 mg/kg
  Co-60 Dose % for animal group: 0.16 ± 0.07%
[10]; Lung, single oral dose 15 mg/kg, 48 hr
  % Reduction of Co-60 vs Co-60 Control: 0%
[10]; Muscle, single oral dose 15 mg/kg
  Co-60 Dose % for animal group: 0.63 ± 0.18%
[10]; Muscle, single oral dose 15 mg/kg, 48 hr
  % Reduction of Co-60 vs Co-60 Control: 39%
[10]; Spleen, single oral dose 15 mg/kg
  Co-60 Dose % for animal group: 0.056 ± 0.007%
[10]; Spleen, single oral dose 15 mg/kg, 48 hr
  % Reduction of Co-60 vs Co-60 Control: 0%
[10]; Stomach, single oral dose 15 mg/kg
  Co-60 Dose % for animal group: 0.041 ± 0.014%
[10]; Stomach, single oral dose 15 mg/kg, 48 hr
  % Reduction of Co-60 vs Co-60 Control: 45%
[10]; Total Skeleton (from femur data), single oral dose 15 mg/kg
  Co-60 Dose % for animal group: 0.32 ± 0.17%
[10]; Total Skeleton, single oral dose 15 mg/kg, 48 hr
  % Reduction of Co-60 vs Co-60 Control: 49%
[10]; single oral dose 15 mg/kg, 48 hr
  effect on blood levels of Co-60: slightly decreased
[10]; [13]
  effect on urinary elimination of Co-60: did not change
  increase of fecal elimination of Co-60: about 3%
[10]; single oral dose 15 mg/kg
  effect on total Co-60 excretion (urine and feces): slightly increased
[10]; single oral dose 15 mg/kg, listed as penicillamine
  effect on total Co-60 excretion (urine and feces): appeared to accelerate
[10]; single oral dose, Co-60
  reduction in the fraction of administered dose in the skeleton (based on femur data), liver and kidney: 51-56%
[11]
  binding stability constant (log K): 18.18 (Cu^1+)
[11]; listed as penicillamine
  binding stability constant (log K): very strongly
[12]
  binding stability constant (log K): 12.4
[12]; listed as penicillamine
  binding stability constant (log K): fairly strong
